Earlier results in publication PMC7366343 (Journal of the American Chemical Society, 2019).

Tests used:
hTDO = hTDO (Homo sapiens, UniProt P48775); conditions: read-out: reported IC50 for hTDO
Sequence of hTDO (P48775 whole entry): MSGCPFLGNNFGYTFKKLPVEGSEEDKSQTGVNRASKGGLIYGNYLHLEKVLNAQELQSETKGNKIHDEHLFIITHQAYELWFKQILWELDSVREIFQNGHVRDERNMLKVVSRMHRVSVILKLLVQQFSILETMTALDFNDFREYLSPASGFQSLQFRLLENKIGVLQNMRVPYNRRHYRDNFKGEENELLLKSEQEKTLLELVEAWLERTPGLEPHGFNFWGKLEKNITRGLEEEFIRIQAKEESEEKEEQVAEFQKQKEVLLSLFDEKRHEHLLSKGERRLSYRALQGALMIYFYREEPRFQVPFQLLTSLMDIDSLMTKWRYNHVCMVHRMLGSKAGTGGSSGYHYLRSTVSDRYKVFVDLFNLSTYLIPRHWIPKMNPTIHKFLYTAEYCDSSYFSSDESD

blood-brain barrier crossing: able to cross the blood-brain barrier
IC50 (hTDO): > 50 µM
SMILES: O=C1CC(c2c[nH]c3ccc(F)cc23)C(=O)N1 (centres unmarked) [IPD, 3-(5-Fluoro-1H-indol-3-yl)pyrrolidine-2,5-dione]
